Assay results published in US20240327506A1, “METHODS AND COMPOSITION FOR THE SELECTIVE ENHANCEMENT OF ADOPTIVE CELL THERAPY” (MaineHealth, priority 2023, published 2024).

Experiments:
αvβ3 = αvβ3 (Homo sapiens, UniProt P05106+P06756); details: cited from earlier work
Hut78 T-cells = test: Transwell migration of Hut78 T-cells through collagen type-IV; assay type: cell-based, human
Method: FIGS. 4A-4H. […] Briefly, membranes from transwell migration chambers were coated with either native collagen type-IV or denatured collagen type-IV. T-cell variants were incubated with non-specific control peptide CP, or the RGDKGE (SEQ ID NO: 1)-containing collagen peptide (P2) and seed on the coated transwell membranes. T-cells were allowed to migrate in the presence or absence of SDF-1 added to the lower chamber for approximately 1.5 hours. Cell migration was quantified by counting the number of crystal violet stained cells that had migrated through to the underside of the coated membrane. FIG. 4A. Jurkat T-cell migration through denatured collagen type-IV in the presence of non-specific control peptide CP or RGDKGE (SEQ ID NO: 1)-containing collagen peptide P2 with SDF-1. FIG. 4B. Jurkat T-cell migration through native collagen type-IV in the presence of non-specific control peptide CP or RGDKGE (SEQ ID NO: 1)-containing collagen peptide P2 with SDF-1. FIG. 4C. Cem/C1 T-cell migration through denatured collagen type-IV in the presence of non-specific control peptide CP or RGDKGE (SEQ ID NO: 1)-containing collagen peptide P2 with SDF-1. FIG. 4D. Cem/C1 T-cell migration through native collagen type-IV in the presence of non-specific control peptide CP or RGDKGE (SEQ ID NO: 1)-containing collagen peptide P2. FIG. 4E. Hut78 T-cell migration through denatured collagen type-IV in the presence of non-specific control peptide CP or RGDKGE (SEQ ID NO: 1)-containing collagen peptide P2. FIG. 4F. Hut78 T-cell migration through native collagen type-IV in the presence of non-specific control peptide CP or RGDKGE (SEQ ID NO: 1)-containing collagen peptide P2. FIG. 4G Primary CD8+ T-cell migration through denatured collagen type-IV in the presence of non-specific control peptide CP or RGDKGE (SEQ ID NO: 1)-containing collagen peptide P2 with SDF-1. FIG. 4H. CD8+ T-cell migration through native collagen type-IV in the presence of non-specific control peptide CP or RGDKGE (SEQ ID NO: 1)-containing collagen peptide P2 with SDF-1. Data bars indicate the mean cell migration±S.E. *P<0.05.
Given our new observations, and the fact that many tumor types as well as immunosuppressive macrophages can secrete the small soluble RGDKGE (SEQ ID NO: 1) collagen peptide, we next sought to determine whether this soluble collagen peptide could impact T-cell migration through denatured collagen type-IV, a critical ECM component shown to be selectively enriched in tumor vessels. Briefly, membranes from transwell migration chambers were coated with either native collagen type-IV or denatured collagen type-IV. […] Cell migration was quantified following staining cells with crystal violet (6,8). […]

ID8-VEGF ovarian tumors = test: T-cell levels in malignant ascites fluid of mice with ID8-VEGF ovarian tumors, flow cytometry; assay type: in vivo, C57BL/6 mice; details: compared to control antibody
Method: Data bars represent the mean percentage of CD8+ T-cells (+SE from 4 mice per condition) in the ascites fluid from each experimental group.
Mice (C57BL/6) were injected intraperitoneally with ID8-VEGF ovarian tumor cells. ID8-VEGF tumor cells were allowed to grow within the peritoneal cavity of mice for 4-weeks to allow formation of malignant ascites fluid and solid tumors. Beginning at 4 weeks, mice were injected subcutaneously with 100 μg per mouse 2× per week with non-specific control antibody (Ab Cont) or anti-HU177 antibody (Anti-HU177). At 12 weeks, mice were sacrificed and malignant ascites fluid was collected. The relative levels of CD4+ Treg-cells within the malignant ascites fluid was quantified by flow cytometry. Data bars represent the mean percentage of CD4+ Treg cells+SE from 4 mice per condition in the ascites fluid from each experimental group.
Given the surprising results that the Mab HU177 enhanced T-cell migration on denatured collagen type-IV, we next evaluated if administration of HU-177 antibody could increase the levels of CD8+ T-cells found in malignant ascites fluid. […] The relative levels of CD8+ T-cells within the malignant ascites fluid was quantified by flow cytometry, for 4 mice per experimental condition. […]

tumor = details: combination with anti-PDL-1 antibody; cited from earlier work
activated fibroblasts = details: cited from earlier work

Chain of αvβ3 (P06756 31-889 limits assumed): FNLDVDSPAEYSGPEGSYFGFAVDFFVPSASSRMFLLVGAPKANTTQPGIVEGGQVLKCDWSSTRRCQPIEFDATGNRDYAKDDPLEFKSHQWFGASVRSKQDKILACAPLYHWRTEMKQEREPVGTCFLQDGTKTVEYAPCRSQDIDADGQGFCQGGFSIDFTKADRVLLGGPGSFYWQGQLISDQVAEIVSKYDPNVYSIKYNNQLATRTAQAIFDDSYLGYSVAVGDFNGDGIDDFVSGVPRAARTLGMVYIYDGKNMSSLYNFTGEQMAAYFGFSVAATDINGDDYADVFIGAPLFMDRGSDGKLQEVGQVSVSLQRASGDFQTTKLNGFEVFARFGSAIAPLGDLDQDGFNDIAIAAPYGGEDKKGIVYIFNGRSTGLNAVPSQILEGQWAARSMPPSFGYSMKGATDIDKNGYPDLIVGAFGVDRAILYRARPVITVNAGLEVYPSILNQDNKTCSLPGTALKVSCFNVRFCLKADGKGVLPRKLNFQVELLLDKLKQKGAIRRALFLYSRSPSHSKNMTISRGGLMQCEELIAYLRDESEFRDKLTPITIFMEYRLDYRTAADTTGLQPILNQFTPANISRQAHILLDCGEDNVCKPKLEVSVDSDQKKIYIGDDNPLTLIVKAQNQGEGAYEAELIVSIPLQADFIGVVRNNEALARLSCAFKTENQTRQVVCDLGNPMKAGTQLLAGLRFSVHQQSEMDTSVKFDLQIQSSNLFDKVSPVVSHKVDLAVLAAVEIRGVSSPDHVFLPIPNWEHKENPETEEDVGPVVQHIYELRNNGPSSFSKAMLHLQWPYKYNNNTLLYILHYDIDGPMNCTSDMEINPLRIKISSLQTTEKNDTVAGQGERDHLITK
Chain of αvβ3 (P06756 891-1048 partner limits assumed): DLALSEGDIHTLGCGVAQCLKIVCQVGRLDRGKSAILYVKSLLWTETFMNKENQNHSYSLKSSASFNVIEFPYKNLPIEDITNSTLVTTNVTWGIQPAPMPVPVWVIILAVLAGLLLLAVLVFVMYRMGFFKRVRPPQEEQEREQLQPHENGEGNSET
Chain of αvβ3 (P05106 27-788): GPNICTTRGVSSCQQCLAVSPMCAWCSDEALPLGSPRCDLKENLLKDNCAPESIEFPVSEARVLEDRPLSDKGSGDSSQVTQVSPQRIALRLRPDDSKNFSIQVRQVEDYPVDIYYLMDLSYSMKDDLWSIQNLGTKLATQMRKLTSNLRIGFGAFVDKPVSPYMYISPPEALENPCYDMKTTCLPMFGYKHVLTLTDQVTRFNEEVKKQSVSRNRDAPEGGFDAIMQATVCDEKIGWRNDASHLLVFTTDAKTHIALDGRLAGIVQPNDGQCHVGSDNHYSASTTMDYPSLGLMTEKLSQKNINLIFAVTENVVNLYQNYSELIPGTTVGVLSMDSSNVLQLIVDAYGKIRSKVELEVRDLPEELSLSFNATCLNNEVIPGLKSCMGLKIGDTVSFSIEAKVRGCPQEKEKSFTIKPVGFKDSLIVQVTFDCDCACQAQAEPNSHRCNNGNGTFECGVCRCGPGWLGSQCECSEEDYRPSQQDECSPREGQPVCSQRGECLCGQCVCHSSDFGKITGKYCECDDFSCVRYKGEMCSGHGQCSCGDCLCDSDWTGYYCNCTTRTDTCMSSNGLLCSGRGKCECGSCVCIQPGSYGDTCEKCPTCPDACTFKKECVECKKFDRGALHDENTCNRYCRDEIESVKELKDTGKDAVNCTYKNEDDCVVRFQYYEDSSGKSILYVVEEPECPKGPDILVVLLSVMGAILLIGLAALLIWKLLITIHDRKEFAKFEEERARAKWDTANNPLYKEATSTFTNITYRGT

KGDRGDAPG (CKGDRGDAPGC; Synthetic: Synthetic collagen RGD containing peptide P-1) [synthetic collagen RGD peptide, Colla1 742-750]
binding to αvβ3 (αvβ3): bound

Mab HU177: antibody specifically directed to denatured forms of collagen, cryptic CPGFPGFC (SEQ ID NO: 16) epitope
Hut78 T-cell migration (Hut78 T-cells; denatured collagen type-IV, fab fragments, compared to control antibody): significantly enhanced | mean % Treg cells in the ascites fluid (ID8-VEGF ovarian tumors; 100 μg per mouse subcutaneously twice a week from week 4, ascites at 12 weeks): significant decrease | mean percentage of CD8+ T-cells in the ascites fluid (ID8-VEGF ovarian tumors; 100 μg/mouse subcutaneously twice a week from week 4, ascites at 12 weeks): significant increase | anti-tumor efficacy of an immune checkpoint inhibitor (anti-PDL-1) in vivo (tumor): enhance the therapeutic activity | activated fibroblast migration and accumulation within tumors in vivo (activated fibroblasts): inhibits

CQGPGGAAGGC [CP, reference compound]
Hut78 T-cell migration (Hut78 T-cells; native collagen type-IV, peptide, absence of SDF-1): nor the non-specific control peptide had any significant effect
